Assay results as given in paper PMC2150313 (British Journal of Cancer, 1998).
Where two headings read alike, the source gives them in different places.

Legend:
[1] = Rat pharmacokinetics: plasma 4-OH-IF and chloroacetaldehyde after i.v. IF, with P450 inducer/inhibitor pretreatment
Description: British Joumal of Cancer (1998) 77(11), 1768-1776 ? […] Both reactions are catalysed by multiple liver P450 enzymes in vitro in isolated rat liver microsomes. […] The identification of those P450s that contribute specifically to these individual meta- bolic pathways is of particular interest, given the large degree of interindividual differences in the catalytic activities of specific P450s seen in human liver samples (Shimada et al, 1994). […] This complexation, in turn, results in an inhibition of these P450s. Inhibition of P450 2B 1 by non-covalent interaction with the haem ligand metyrapone (MTP) has also been reported (Waxman and Walsh, 1983; Halpert, 1995). […] MTP and other specialty chemi- cals were of the highest grade commercially available and were obtained from Aldrich Chemical (Milwaukee, WI, USA). Animals Male Fischer 344 rats (160-250 g; 7-11 weeks of age) were purchased from Taconic (Germantown, NY, USA). Animals were maintained in individual plastic cages under conditions of constant temperature (22?C), lighting (12-h dark-light cycle) and humidity, and provided with food and water ad libitum, in accordance with the National Institutes of Health Guide for the Care and Use of Laboratory Animals. Rat pharmacokinetics Surgery For kinetic studies, rats were implanted with an indwelling cannula (silicone medical grade/polyethylene tubing) in the right jugular vein to allow blood sampling and drug administration. Surgery was performed under ketamine (Ketaset 95 mg kg-') and xylazine (Rompun 12 mg kg-') anaesthesia 3-4 days before the kinetic experiment. After cannulation, a Rodent Infusion Set obtained from Lomin (Quebec, Canada) was used to withdraw blood samples at appropriate time intervals. Catheters were flushed daily with heparinized saline (20 U ml-') to prevent clotting. […] The sample was then diluted in 0.9% saline to the final required volume and the pH adjusted to pH 4 with 1 M sodium hydroxide. […] At each time point, the rats were given an injection of 0.5 ml of 0.9% saline through the catheter to replace the volume of blood withdrawn. […] Data shown at each pharmacokinetic sampling point are means ? s.d. values. […] Plasma samples (100 gl of supematant) were removed and stored at -80?C until analysis. Plasma proteins were precipitated by successive addition of 40 gl of ice-cold 5.5% (w/v) zinc sulphate, 40 gl of ice-cold saturated barium hydroxide and 20 gl of ice-cold 0.01 M hydrochloric acid. Samples were centrifuged for 15 min at 16 000 g, and 125 gl of the supernatant was added to 67 gl of a solution containing 6 mg of 3-amino- phenol and 6 mg of hydroxylamine hydrochloride dissolved in 1 ml of 1 M hydrochloric acid. Samples were heated at 90?C for 30 min in the dark, then allowed to cool to room temperature and diluted with 408 pl of distilled water before reading the fluores- cence (350 nm excitation and 515 nm emission) on a Shimadzu RF15 spectrofluorophotometer. […] CA present in the plasma samples was derivatized with thiourea to produce 2-aminothiazole, which was assayed by high-performance liquid chromatography (HPLC) after solid- phase extraction by a modification of published methods (Yu and Waxman, 1996). Briefly, a 208-gl aliquot of heparinized blood was immediately mixed with 1 mm formaldehyde to stabilize CA, and then deproteinized with 25.2 pl of ice-cold 70% perchloric acid. After centrifugation (16 000 g for 4 min) at room temperature, 140 pl of the supernatant was added to 21 pl of 100 mM thiourea. […] The derivatized samples were stored at -80?C until analysis (usually within 2 weeks). The 2-aminothia- zole product was isolated using a 100-mg Bond Elut SCX cation- exchange column (Varian), and then eluted, evaporated in vacuo in a Speed Vac and analysed by HPLC on an Alltech Econosphere C18 column with an absorbance detector operating at a wavelength of 254 nm.

P450 2B1 = biological target: T1, P450 2B1 (Rattus norvegicus, UniProt P00176); conditions: isolated liver microsomes, vs untreated
T1 sequence (P00176 1-491): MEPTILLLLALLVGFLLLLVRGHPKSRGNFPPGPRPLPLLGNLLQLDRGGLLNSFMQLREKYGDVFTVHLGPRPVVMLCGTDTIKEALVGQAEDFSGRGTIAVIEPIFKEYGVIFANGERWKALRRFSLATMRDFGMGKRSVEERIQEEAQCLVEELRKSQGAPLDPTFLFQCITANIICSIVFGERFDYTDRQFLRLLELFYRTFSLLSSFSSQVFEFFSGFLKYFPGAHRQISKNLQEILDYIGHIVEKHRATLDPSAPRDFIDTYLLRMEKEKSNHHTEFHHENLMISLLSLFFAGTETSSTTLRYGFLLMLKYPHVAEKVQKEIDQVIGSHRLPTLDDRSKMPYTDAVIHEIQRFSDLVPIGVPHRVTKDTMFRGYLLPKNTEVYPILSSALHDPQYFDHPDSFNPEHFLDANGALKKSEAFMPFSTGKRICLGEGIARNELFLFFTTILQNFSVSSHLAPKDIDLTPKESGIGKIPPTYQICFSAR

rat liver microsomes = system: rat liver microsomes; parameters: method as in Yu and Waxman, 1996; conditions: ref Yu and Waxman, 1996, cited from earlier work
[2] = after IF 100 mg kg-1 i.v., DEX 50 mg kg-1 for 3 days
[3] = after IF 100 mg kg-1 i.v., PB20 rats given MTP 5 min before IF

With `O=P1(NCCCl)OCCC(O)N1CCCl` (stereo not drawn) [4-OH-IF, 4-hydroxy IF] the tmax [1, 2] was 4 min, the tmax [1, 3] was 4 min and the “tmax (time to reach peak plasma concentration)” value ([1]; after IF 100 mg kg-1 i.v., untreated (UT) rats) was 4 to 10 min.
In the case of `Cc1ccccc1C(OCCN(C)C)c1ccccc1` (stereo not drawn) [ORP, orphenadrine, reference compound], the “increase in CA half-life” value ([1]; male, Fischer 344, rat, in vivo, ip) is reported as “approximately 30%”.
In the case of `CCC1(c2ccccc2)C(=O)NC(=O)NC1=O` [PB, phenobarbital], the “induction of androstenedione 16β-hydroxylase activity” value (P450 2B1; PB20 regimen) is reported as “fivefold” and the “induction of androstenedione 16β-hydroxylase activity” value (P450 2B1; PB80 regimen) is reported as 7.5 fold.
For `O=P1(NCCCl)OCCCN1CCCl` (stereo not drawn) [IF, ifosfamide], the “extent of in vitro IF N-dechloroethylation, of total metabolism” value (rat liver microsomes; liver microsomes of DEX-treated male rats) is listed as 24% and the “extent of in vitro IF N-dechloroethylation, of total metabolism” value (rat liver microsomes; liver microsomes of male rats without DEX treatment) is listed as 47%.
For `O=CCCl` [CA, chloroacetaldehyde], the tmax [1, 2] was 10 min, the tmax [1, 3] was 60 min and the tmax ([1]; after IF 100 mg kg-1 i.v., PB-pretreated rats (PB20 and PB80, Figure 1B and C)) was 4 min. For the same compound, the Cmax ([1]; plasma, IF 100 mg kg-1 i.v., PB80+TAO group (TAO 500 mg kg-1 2 h before IF), n=3) was 172 µM.
